Assay results published in US7709497B2, “Pyrazolo[3,4-b]pyridine compound, and its use as a PDE4 inhibitor” (Glaxo Group Limited, priority 2004, dated 2010).

Biological target: T1, PDE4B (human recombinant) (Homo sapiens, UniProt Q07343)
T1 construct: made in house; host or cells: Saccharomyces cerevisiae strain GL62 (PDE-deficient yeast)
Experiment: PDE4B inhibition, IMAP Fluorescence Polarisation (FP) assay
Type: biochemical
Details: n = 2; accuracy ±about 0.5 log unit; read-out: PDE4B pIC50 (FP assay, mean value) (converted)
Description: Human recombinant PDE4B, in particular the 2B splice variant thereof (HSPDE4B2B), is disclosed in WO 94/20079 and also M. M. McLaughlin et al., “A low Km, rolipram-sensitive, cAMP-specific phosphodiesterase from human brain: cloning and expression of cDNA, biochemical characterisation of recombinant protein, and tissue distribution of mRNA”, J. Biol. Chem., 1993, 268, 6470-6476. […]
The ability of compounds to inhibit catalytic activity at PDE4B (human recombinant) or PDE4D (human recombinant) can optionally be determined by IMAP Fluorescence Polarisation (FP) assay (IMAP Explorer kit, available from Molecular Devices Corporation, Sunnydale, Calif., USA; Molecular Devices code: R8062) in a 384-well format.
The IMAP FP assay is able to measure PDE activity in an homogenous, non-radioactive assay format. […] Binding of Fl-AMP product to the beads (coated with the immobilised trivalent cations) slows the rotation of the bound Fl-AMP and leads to an increase in the fluorescence polarisation ratio of parallel to perpendicular light. […]
Biological Data obtained for Example 1 and/or Example 1A (i.e. the compound of formula (I)) (PDE4B and PDE4D inhibitory activities, usually as an average of more than one reading) are as follows, based on current measurements only, and using the above or similar or analogous assay methods. […]

T1 sequence (Q07343 1-564 isoform Q07343-2): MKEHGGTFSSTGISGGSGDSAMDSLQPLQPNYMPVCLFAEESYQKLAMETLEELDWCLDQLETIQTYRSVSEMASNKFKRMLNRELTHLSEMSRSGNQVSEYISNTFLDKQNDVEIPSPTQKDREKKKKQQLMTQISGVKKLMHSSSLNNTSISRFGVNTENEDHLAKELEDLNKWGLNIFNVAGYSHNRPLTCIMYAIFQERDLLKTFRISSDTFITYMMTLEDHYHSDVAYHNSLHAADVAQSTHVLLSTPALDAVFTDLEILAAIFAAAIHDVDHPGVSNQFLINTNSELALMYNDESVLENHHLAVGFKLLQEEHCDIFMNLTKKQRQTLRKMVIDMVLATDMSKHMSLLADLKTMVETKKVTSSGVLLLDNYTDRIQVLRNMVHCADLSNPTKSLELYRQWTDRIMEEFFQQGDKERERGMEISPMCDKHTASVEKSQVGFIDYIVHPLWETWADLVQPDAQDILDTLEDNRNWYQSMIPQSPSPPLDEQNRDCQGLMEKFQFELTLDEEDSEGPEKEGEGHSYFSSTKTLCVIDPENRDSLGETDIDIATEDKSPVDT

## CCn1ncc2c(NC3CCN(C(N)=O)CC3)c(C(=O)NCc3ccc(C)c(C)c3)cnc21 [compound of formula (I), 4-{[1-(aminocarbonyl)-4-piperidinyl]amino}-N-[(3,4-dimethylphenyl)methyl]-1-ethyl-1H-pyrazolo[3,4-b]pyridine-5-carboxamide]
  IC50: 0.676 nM
